According to patent US11679114B2, “Progestogen-only oral contraception” (Navad Life Sciences Pte, priority 2021, dated 2023):
Where two headings read alike, the source gives them in different places.

Legend:
Format in all cases: in vivo, human
[1] = tested on: healthy, cyclic women; assay: Serum FSH, LH, estradiol (E2) and progesterone (P) concentrations during treatment; details: first treatment visit, probably a residue from the pre-treatment cycle; dose group not stated
Procedure: (§1) The tablets prepared in Example 1 were tested in a single-center, open-label, adaptive design study to evaluate the influence on hormonal and ovarian function and vaginal bleeding pattern of different higher dosages of LNG administered once daily for 28 days over two consecutive treatment cycles in healthy, cyclic women.
Subjects started study medication intake on the first day of menstrual bleeding after the pre-treatment cycle. One tablet was taken orally, around the same time every morning, during 56 consecutive days. Study visits were planned every three (±1) days from treatment day 3 (±1) until 27 (±1) and from day 31 (±1) until day 55 (±1). At each visit the diameter of the largest follicle-like structure (FLS) and serum follicle-stimulating hormone (FSH), luteinizing hormone (LH), estradiol (E2) and P concentrations were measured.
If ovulation was observed during treatment, the subsequent luteal phase was evaluated using the Landgren criterion, i.e. the luteal phase was considered adequate when P concentrations were >16 nmol/L during at least 5 days (Landgren et al., “Hormonal effects of the 300 μg norethisterone (NET) minipill. 1. Daily steroid levels in 43 subjects during a pretreatment cycle and during the second month of NET administration,” Contraception 1980; 21: pp. 87-113). TVUS measurements of the diameter of the largest FLS (mean of two directions) were performed using a Voluson E8 Expert device (GE Medical Systems). Serum FSH, LH, E2, P and SHBG concentrations were determined by validated chemiluminescent microparticle immunoassays (Abbott, Longford, Ireland). All pharmacodynamic parameters were evaluated descriptively.

[2] = Multiple-dose pharmacokinetics, plasma LNG concentrations on treatment day 55 (±1); details: for AUC(0-t) / Cmax: female, human, plasma, po
Procedure: Serum SHBG concentrations were determined after ovulation in the pre-treatment cycle, on treatment day 55 (±1) and at the end-of-study examination. Multiple-dose PK parameters were investigated in approximately 15 subjects per dose group, 5 of them having a BMI≥30 kg/m^2. Blood samples for LNG determination were taken on treatment day 55 (±1) pre-dose and 0.5, 1, 2, 3, 4, 6 and 24 hours after dosing.
Plasma LNG concentrations were determined by a validated liquid chromatography hyphenated with tandem mass spectrometry method (ACC, Leidersbach, Germany). PK parameters were derived by means of non-compartmental analysis. Analysis of Variance (ANOVA) was used as basis for the calculation of 90% confidence intervals; point estimates and confidence intervals for area under the curve (AUC) and maximum concentration (Cmax) values and comparison of treatments which were calculated by parametric analysis. Descriptive statistics for each treatment group and for subgroups with BMI<30 and ≥30 kg/m^2 were calculated.

[3] = tested on: healthy, cyclic women; assay: Vaginal bleeding pattern (daily record); details: excluding the first 7 treatment days
Procedure: as §1
Throughout the study, subjects kept a daily record of vaginal bleeding. During the treatment period, they also documented the time of study medication intake.

[4] = tested on: healthy, cyclic women; assay: Adverse events and tolerability
Procedure: At every visit, the subjects were questioned for adverse events and use of concomitant medication. Safety laboratory and pregnancy tests were performed at regular intervals during the study. Physical examinations were performed at screening and end of study.

[5] = 0.095 mg per day oral over 55 ± 1 consecutive days, entire treatment group
[6] = 0.115 mg per day oral over 55 ± 1 consecutive days, entire treatment group
[7] = 0.135 mg per day oral over 55 ± 1 consecutive days, entire treatment group

## C#C[C@]1(O)CC[C@H]2[C@@H]3CCC4=CC(=O)CC[C@@H]4[C@H]3CC[C@@]21CC (racemic) [LNG, levonorgestrel]
[1]
  Single P concentration in another subject: 5.85 nmol/L
[2]; [5]
  AUC0-24, ss, Max: 0.0232 µg·h/mL
  AUC0-24, ss, Min: 0.00729 µg·h/mL
  Cmax, ss, Max: 3.12 ng/mL
  Cmax, ss, Min: 0.903 ng/mL
[2]; [6]
  AUC0-24, ss, Max: 0.0261 µg·h/mL
  AUC0-24, ss, Min: 0.00558 µg·h/mL
  Cmax, ss, Max: 2.83 ng/mL
  Cmax, ss, Min: 0.73 ng/mL
[2]; [7]
  AUC0-24, ss, Max: 0.03 µg·h/mL
  AUC0-24, ss, Min: 0.0102 µg·h/mL
  Cmax, ss, Max: 3.23 ng/mL
  Cmax, ss, Min: 1.14 ng/mL
[2]; 0.095, 0.115 and 0.135 mg per day, day 55±1
  Dose proportionality of total exposure over the dosing interval: dose proportionality
[2]; 0.095 mg per day, 0.095 mg per day oral over 55 ± 1 consecutive days, entire treatment group, read-out: AUC0-24, ss, Geometric Mean
  AUC(0-t): 0.0124 µg·h/mL
[2]; 0.095 mg per day, 0.095 mg per day oral over 55 ± 1 consecutive days, entire treatment group, read-out: AUC0-24, ss, Mean
  AUC(0-t): 0.0131 µg·h/mL
[2]; 0.095 mg per day, 0.095 mg per day oral over 55 ± 1 consecutive days, entire treatment group, read-out: AUC0-24, ss, Median
  AUC(0-t): 0.0118 µg·h/mL
[2]; 0.095 mg per day, 0.095 mg per day oral over 55 ± 1 consecutive days, entire treatment group, read-out: Cmax, ss, Geometric Mean
  Cmax: 1.55 ng/mL
[2]; 0.095 mg per day, 0.095 mg per day oral over 55 ± 1 consecutive days, entire treatment group, read-out: Cmax, ss, Mean
  Cmax: 1.65 ng/mL
[2]; 0.095 mg per day, 0.095 mg per day oral over 55 ± 1 consecutive days, entire treatment group, read-out: Cmax, ss, Median
  Cmax: 1.63 ng/mL
[2]; 0.095 mg per day, 0.095 mg per day oral over 55 ± 1 consecutive days, subgroup BMI < 30 kg/m2, read-out: AUC0-24, ss, Geometric mean
  AUC(0-t): 0.014 µg·h/mL
[2]; 0.095 mg per day, 0.095 mg per day oral over 55 ± 1 consecutive days, subgroup BMI < 30 kg/m2, read-out: Cmax, ss, Geometric mean
  Cmax: 1.83 ng/mL
[2]; 0.095 mg per day, 0.095 mg per day oral over 55 ± 1 consecutive days, subgroup BMI ≥ 30 kg/m^2, read-out: AUC0-24, ss, Geometric mean
  AUC(0-t): 0.0092 µg·h/mL
[2]; 0.095 mg per day, 0.095 mg per day oral over 55 ± 1 consecutive days, subgroup BMI ≥ 30 kg/m^2, read-out: Cmax, ss, Geometric mean
  Cmax: 1.05 ng/mL
[2]; 0.115 mg per day, 0.115 mg per day oral over 55 ± 1 consecutive days, entire treatment group, read-out: AUC0-24, ss, Geometric Mean
  AUC(0-t): 0.0138 µg·h/mL
[2]; 0.115 mg per day, 0.115 mg per day oral over 55 ± 1 consecutive days, entire treatment group, read-out: AUC0-24, ss, Mean
  AUC(0-t): 0.0148 µg·h/mL
[2]; 0.115 mg per day, 0.115 mg per day oral over 55 ± 1 consecutive days, entire treatment group, read-out: AUC0-24, ss, Median
  AUC(0-t): 0.0129 µg·h/mL
[2]; 0.115 mg per day, 0.115 mg per day oral over 55 ± 1 consecutive days, entire treatment group, read-out: Cmax, ss, Geometric Mean
  Cmax: 1.67 ng/mL
[2]; 0.115 mg per day, 0.115 mg per day oral over 55 ± 1 consecutive days, entire treatment group, read-out: Cmax, ss, Mean
  Cmax: 1.79 ng/mL
[2]; 0.115 mg per day, 0.115 mg per day oral over 55 ± 1 consecutive days, entire treatment group, read-out: Cmax, ss, Median
  Cmax: 1.81 ng/mL
[2]; 0.115 mg per day, 0.115 mg per day oral over 55 ± 1 consecutive days, subgroup BMI < 30 kg/m2, read-out: AUC0-24, ss, Geometric mean
  AUC(0-t): 0.0163 µg·h/mL
[2]; 0.115 mg per day, 0.115 mg per day oral over 55 ± 1 consecutive days, subgroup BMI < 30 kg/m2, read-out: Cmax, ss, Geometric mean
  Cmax: 2.03 ng/mL
[2]; 0.115 mg per day, 0.115 mg per day oral over 55 ± 1 consecutive days, subgroup BMI ≥ 30 kg/m^2, read-out: AUC0-24, ss, Geometric mean
  AUC(0-t): 0.00932 µg·h/mL
[2]; 0.115 mg per day, 0.115 mg per day oral over 55 ± 1 consecutive days, subgroup BMI ≥ 30 kg/m^2, read-out: Cmax, ss, Geometric mean
  Cmax: 1.05 ng/mL
[2]; 0.135 mg per day, 0.135 mg per day oral over 55 ± 1 consecutive days, entire treatment group, read-out: AUC0-24, ss, Geometric Mean
  AUC(0-t): 0.0168 µg·h/mL
[2]; 0.135 mg per day, 0.135 mg per day oral over 55 ± 1 consecutive days, entire treatment group, read-out: AUC0-24, ss, Mean
  AUC(0-t): 0.0175 µg·h/mL
[2]; 0.135 mg per day, 0.135 mg per day oral over 55 ± 1 consecutive days, entire treatment group, read-out: AUC0-24, ss, Median
  AUC(0-t): 0.0169 µg·h/mL
[2]; 0.135 mg per day, 0.135 mg per day oral over 55 ± 1 consecutive days, entire treatment group, read-out: Cmax, ss, Geometric Mean
  Cmax: 1.92 ng/mL
[2]; 0.135 mg per day, 0.135 mg per day oral over 55 ± 1 consecutive days, entire treatment group, read-out: Cmax, ss, Mean
  Cmax: 2.01 ng/mL
[2]; 0.135 mg per day, 0.135 mg per day oral over 55 ± 1 consecutive days, entire treatment group, read-out: Cmax, ss, Median
  Cmax: 1.93 ng/mL
[2]; 0.135 mg per day, 0.135 mg per day oral over 55 ± 1 consecutive days, subgroup BMI < 30 kg/m2, read-out: AUC0-24, ss, Geometric mean
  AUC(0-t): 0.0176 µg·h/mL
[2]; 0.135 mg per day, 0.135 mg per day oral over 55 ± 1 consecutive days, subgroup BMI < 30 kg/m2, read-out: Cmax, ss, Geometric mean
  Cmax: 2.14 ng/mL
[2]; 0.135 mg per day, 0.135 mg per day oral over 55 ± 1 consecutive days, subgroup BMI ≥ 30 kg/m^2, read-out: AUC0-24, ss, Geometric mean
  AUC(0-t): 0.0153 µg·h/mL
[2]; 0.135 mg per day, 0.135 mg per day oral over 55 ± 1 consecutive days, subgroup BMI ≥ 30 kg/m^2, read-out: Cmax, ss, Geometric mean
  Cmax: 1.52 ng/mL
[2]; study drug administration on day 55±1, all dosages
  Time at which maximum plasma LNG values were reached after dosing: 1 h
[3]; LNG 0.095 mg per day
  Number of days with bleeding or spotting during treatment, mean (±SD): 12.3 (±8.6) days
  Number of days with bleeding or spotting during treatment, median: 11.5 days
[3]; LNG 0.115 mg per day
  Number of days with bleeding or spotting during treatment, mean (±SD): 14.5 (±9.4) days
  Number of days with bleeding or spotting during treatment, median: 14.5 days
[3]; LNG 0.135 mg per day
  Number of days with bleeding or spotting during treatment, mean (±SD): 16.0 (±11.5) days
  Number of days with bleeding or spotting during treatment, median: 13.0 days
[4]; 0.095 mg LNG, n subjects 30
  n acne events, possibly IMP related: 3
[4]; 0.115 mg LNG, n subjects 29
  n acne events, possibly IMP related: 4
[4]; 0.135 mg LNG, n subjects 29
  n acne events, possibly IMP related: 4
[4]; LNG 0.095, 0.115 or 0.135 mg per day for 56 days
  Tolerability of the study medication: well tolerated
